Experiments:
Type in all cases: cell-based, human
IL-12 p40 mRNA = assay: Northern blot of IL-12 p40 mRNA in IFN-γ/SAC-stimulated THP-1 cells; details: THP-1, IFN-γ/SAC, 1 μM Compound 1
Experimental: Northern blot analysis was performed to examine the mRNA levels of IL-12 p35 and p40. Human PBMC and the human monocyte cell line THP-1 cells were stimulated with IFN-γ/SAC in the presence or absence of Compound 1. Human PBMC were isolated by centrifugation using Ficoll-Paque (Pharmacia Biotech, Uppsala, Sweden) and prepared in RPMI medium supplemented with 10% fetal calf serum (FCS), 100 U/ml penicillin, and 100 μg/ml streptomycin, in a 96-well plate with 5×10^5 cells/well. The cells were then primed with IFN-γ (100 U/ml) and followed by 0.01% SAC or 1 μg/ml LPS, in the presence of different concentrations of Compound 2 or other compounds. The test compounds were prepared in DMSO and the final DMSO concentration was adjusted to 0.25% in all cultures, including the compound-free control. Cell-free supernatants were taken 18 h later for the measurement of cytokines. The THP-1 cells were obtained from American Type Culture Collection (Manassas, Va.) and were cultured in RPMI 1640 (ATCC, Manassas, Va.), supplemented with 10% FCS (ATCC, Manassas, Va.), and 1% penicillin/Streptomycin (Gibco-BRL, New York, N.Y.). Total RNA was isolated and subjected to Northern blot analysis using IL-12 p35 and p40 cDNA probes. We first examined the kinetics of mRNA accumulation in cultures of hPBMC and THP-1 cells primed with IFN-γ followed by SAC stimulation in the presence or absence of 1 μM Compound 1.

NFκB = assay: Gel-shift assay of NFκB binding to the IL-12 p40 promoter site, THP-1 nuclear extracts; details: IFN-γ-primed, SAC-stimulated THP-1; 1 μM Compound 1 or 10 mM ASA
Experimental: (§1) Nuclear extracts were prepared from IFN-γ-primed THP-1 cells that had been treated with or without SAC and incubated in the presence or absence of 1 μM Compound 1 or 10 mM ASA. Isolation of nuclear extracts was accomplished by first suspending THP-1 cells in 20 volumes of buffer A containing 10 mM KCl, 10 mM HEPES (pH 7.9), 1 mM MgCl2, 1 mM dithiothreitol (DTT), 0.1% Nonidet p40 (NP-40), and 0.5 mM phenylmethylsulfonyl fluoride (PMSF) and then homogenizing and centrifuging at 10,000 rpm at 4° C. for 5 min. Nuclear pellets were then suspended in buffer C containing 400 mM NaCl, 20 mM HEPES pH 7.9), 15 mM MgCl2, 0.2 mM EDTA, 1 mM DTT, 25% glycerol, 1 mM PMSF, and 10 μg of leupeptin, 20 μg of pepstatin, and 10 μg of antipain per ml, incubated for 30 min at 4° C., and centrifuge at 14,000 rpm for […]. The supernatants were dialyzed against buffer D containing 100 mM NaCl, 20 mM HEPES (pH 7.9), 20% glycerol, 1 mM PMSF, and 1 mM DTT.
The extracts obtained from this process were used in gel-shift assays using oligonucleotides containing the NFκB target sequence corresponding to the region −121 to −102 from the transcription initiation site of IL-12 p40 or a mutated NFκB binding site. […] This interaction was specific as it was competed away by an excess of unlabeled probe, but not by a mutated oligonucleotide in which two base-pairs were substituted. […]

c-Rel = assay: ELISA based transcriptional factor-DNA binding activity assay, THP-1 nuclear extracts, c-Rel; details: IFN-γ/LPS, 500 nm, 3 hrs
Experimental: as §1
To understand the action of Compound 2 in NF-κB binding, several NF-κB family members, p50, c-Rel and p65 were investigated using an ELISA based transcriptional factor-DNA binding activity assay system. […]

Rel-B = assay: Immunoblot of nuclear Rel-B in THP1 cells; details: THP1, IFNg+LPS, 100 nM, 6 h
Experimental: Rel B and p52 are two members of Rel family, which are preferentially complexed with each other. Like p50 and p65, p52 is found in virtually all cell types, whereas c-Rel and Rel B have only been detected in lymphoid tissues. To determine the effect of Compound 2 on p52 and Rel-B nuclear translocation, THP1 cells were stimulated with IFNg+LPS in either the presence or absence of 100 nM Compound 2, and the distribution of p52 and Rel-B was determined by immunoblotting of nuclear at 6 h post-treatment.
THP-1 cells were suspended in 20 volumes of buffer A containing 10 mM KCl, 10 mM HEPES (pH 7.9), 1 mM MgCl2, 1 mM dithiothreitol (DTT), 0.1% Nonidet p40 (NP-40), and 0.5 mM phenylmethylsulfonyl fluoride (PMSF) and homogenized and centrifuged at 10,000 rpm at 4 C for 5 min. Nuclear pellets were then suspended in buffer C containing 400 mM NaCl, 20 mM HEPES 9 pH 7.9), 15 mM MgCl2, 0.2 mM EDTA, 1 mM DTT, 25% glycerol, 1 mM PMSF, and 10 ug of leupeptin, 20 ug of pepstatin, and 10 ug/ml antipain, incubated for 30 min at 4 C, and centrifuged at 14,000 rpm for 20 min. The supernatants were dialyzed against buffer D containing 100 mM NaCl, 20 mM HEPES (pH 7.9), 20% glycerol, 1 mM PMSF, and 1 mM DTT.
The 10% SDS Polyacrylamide gels (Invitrogen) were transferred to Pure Nitrocellulose membrane (BioRed, Hercules, Calif.). […]

| NFκB binding to p40 promoter probe (gel shift) (NFκB) | Compound | expression of the p40 message (IL-12 p40 mRNA) | binding activity of c-Rel (c-Rel) | nuclear Rel-B (FIG. 11) (Rel-B) |
| --- | --- | --- | --- | --- |
| did not show any influence | C(=NNc1nc(OCCc2ccccn2)nc(N2CCOCC2)n1)c1c[nH]c2ccccc12 [Compound 1, N-(1H-indol-3-ylmethylene)-N′-[4-morpholin-4-yl-6-(2-pyridin-2-yl-ethoxy)-[1,3,5]triazin-2-yl]-hydrazine] | significantly but incompletely reduced |  |  |
|  | Cc1cccc(C=NNc2cc(N3CCOCC3)nc(OCCc3ccccn3)n2)c1 [Compound 2, N-(3-methyl-benzylidene)-N′-[6-morpholin-4-yl-2-(2-pyridin-2-yl-ethoxy)-pyrimidin-4-yl]-hydrazine] |  | significantly decreased | slightly increased |

From patent publication US9910031B2, “Compositions and methods for modulating c-Rel-dependent cytokine production” (Synta Pharmaceuticals Corporation, priority 2003, dated 2018)
